Assay results taken from patent US6294539A, “Heterocyclic hydroxamic acid derivatives as MMP inhibitors” (Advanced Syntech, LLC, priority 2000, dated 2001).
pIC50: −log10 of the molar value.

Target: MMP-9 (Homo sapiens, UniProt P14780)
Experiment: MMP-9 inhibition assay (internally quenched fluorescent peptide substrate)
Format: biochemical
Conditions: purified MMP-9 enzyme, incubation at 37 C
Description: Each of the compounds of Examples 5-12 were assayed for their efficacy as MMP-9 inhibitors. The assay for MMP-9 inhibitors was performed by mixing purified MMP-9 enzyme with assay buffer, substrate, and compound to be tested. The substrate is an internally quenched fluorescent peptide that becomes unquenched upon cleavage by MMP-9 enzyme. After incubation at 37 C., the assay is stopped by addition of EDTA solution and the fluorescence is measured. The fluorescence is directly proportional to enzyme activity. A compound that is an inhibitor of MMP-9 activity will reduce the resultant fluorescent values.

Sequence of MMP-9 (P14780 94-707, species assumed): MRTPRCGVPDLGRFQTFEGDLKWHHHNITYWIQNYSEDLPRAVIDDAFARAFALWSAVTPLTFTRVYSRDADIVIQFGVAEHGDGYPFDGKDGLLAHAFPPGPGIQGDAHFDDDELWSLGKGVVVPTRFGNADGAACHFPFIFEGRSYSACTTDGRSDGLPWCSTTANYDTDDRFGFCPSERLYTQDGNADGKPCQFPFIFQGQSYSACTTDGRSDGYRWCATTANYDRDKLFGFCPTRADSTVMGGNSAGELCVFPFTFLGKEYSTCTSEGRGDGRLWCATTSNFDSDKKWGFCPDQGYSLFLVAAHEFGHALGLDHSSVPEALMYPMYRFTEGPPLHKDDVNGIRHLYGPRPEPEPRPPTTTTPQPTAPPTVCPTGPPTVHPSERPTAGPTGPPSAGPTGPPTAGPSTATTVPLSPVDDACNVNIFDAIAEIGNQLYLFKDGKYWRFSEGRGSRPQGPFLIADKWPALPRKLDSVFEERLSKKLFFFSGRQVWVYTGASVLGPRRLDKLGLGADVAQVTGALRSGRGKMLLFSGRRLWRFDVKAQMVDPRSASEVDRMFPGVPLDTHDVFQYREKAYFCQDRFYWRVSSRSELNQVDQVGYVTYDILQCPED

Compound | pIC50 | inhibition at 1 µM [%]
COc1ccc(S(=O)(=O)N(CCc2cccc(Cl)c2)CC(=O)N2C(CC(=O)NO)CN(Cc3ccc(F)cc3)C(=O)[C@@H]2C)cc1 (single isomer, unassigned) [3A (isomer A)] | 7.30 | –
COc1ccc(S(=O)(=O)N(CCc2cccc(Cl)c2)CC(=O)N2C(CC(=O)NO)CN(Cc3ccc(F)cc3)C(=O)[C@@H]2C)cc1 (single isomer, unassigned) [3B (isomer B)] | 7.28 | –
COc1ccc(S(=O)(=O)N(CCc2cccc(Cl)c2)CC(=O)N2CC(=O)N(Cc3ccc(F)cc3)CC2CC(=O)NO)cc1 (stereo not drawn) [Example 4, 2-{1-[N-(3-Chlorophenethyl)-N-(4-methoxybenzenesufonyl)-aminoacetyl]-4-(4-fluorobenzyl)-5-oxo-piperazin-2-yl}-N-hydroxy-acetamide] | – | 52
COc1ccc(CCN(CC(=O)N2CC(=O)N(Cc3ccc(F)cc3)CC2CC(=O)NO)S(=O)(=O)c2ccc(OC)cc2)cc1 (stereo not drawn) [Example 5, 2-{4-(4-fluorobenzyl)-1-[N-(4-methoxybenzenesufonyl)-N-(4-methoxyphenethyl)-aminoacetyl]-5-oxo-piperazin-2-yl}-N-hydroxy-acetamide] | – | 42

More lines, now with the values ahead:

pIC50 | inhibition at 1 µM [%] | Compound
7.00 | – | COc1ccc(CCN(CC(=O)N2C(CC(=O)NO)CN(Cc3ccc(F)cc3)C(=O)[C@@H]2C)S(=O)(=O)c2ccc(OC)cc2)cc1 (stereo partly drawn) [Example 6, 2-{4-(4-Fluorobenzyl)-1-[N-(4-methoxybenzenesufonyl)-N-(4-methoxyphenethyl)-aminoacetyl]-6-(S)-methyl-5-oxo-piperazin-2-yl}-N-hydroxy-acetamide]
– | 62 | COc1ccc(S(=O)(=O)N(CCc2cccc(Cl)c2)CC(=O)N2CC(=O)N(Cc3cc(OC)cc(OC)c3)CC2CC(=O)NO)cc1 (stereo not drawn) [Example 7, 2-{1-[N-(3-Chlorophenethyl)-N-(4-methoxybenzenesufonyl)-aminoacetyl]-4-(3,5-dimethoxybenzyl)-5-oxo-piperazin-2-yl}-N-hydroxy-acetamide]
– | 35 | COc1ccc(CCN(CC(=O)N2CC(=O)N(Cc3cc(OC)cc(OC)c3)CC2CC(=O)NO)S(=O)(=O)c2ccc(OC)cc2)cc1 (stereo not drawn) [Example 8, 2-{4-(3,5-Dimethoxybenzyl)-1-[N-(4-methoxybenzenesufonyl)-N-(4-methoxyphenethyl)-aminoacetyl]-5-oxo-piperazin-2-yl}-N-hydroxy-acetamide]
6.92 | – | COc1ccc(S(=O)(=O)N(CCc2cccc(Cl)c2)CC(=O)N2C(CC(=O)NO)CN(Cc3cc(OC)cc(OC)c3)C(=O)[C@@H]2C)cc1 (stereo partly drawn) [Example 9, 2-{1-[N-(3-Chlorophenethyl)-N-(4-methoxybenzenesufonyl)-aminoacetyl]4-(3,5-dimethoxybenzyl)-6-(S)-methyl-5-oxo-piperazin-2-yl}-N-hydroxy-acetamide]
6.82 | – | COc1ccc(CCN(CC(=O)N2C(CC(=O)NO)CN(Cc3cc(OC)cc(OC)c3)C(=O)[C@@H]2C)S(=O)(=O)c2ccc(OC)cc2)cc1 (stereo partly drawn) [Example 10, 2-{4-(3,5-dimethoxybenzyl)-1-[N-(4-methoxybenzenesufonyl)-N-(4-methoxyphenethyl)-aminoacetyl]-6-(S)-methyl-5-oxo-piperazin-2-yl}-N-hydroxy-acetamide]
